Test [1] deals with MCF-7 (human breast cancer). Put plainly: CCK-8 anti-proliferation assay, MCF-7. The class given is cell-based. To be noted: Homo sapiens, MCF7; CCK-8, 48 h, mean ± SD. The protocol: (§1) To evaluate their spectrum of anti-proliferative activity, further CCK-8 assays were carried out with the selected compounds (5a/5b, 8a/8b, 33a/33b, and 36a/36b) on MCF-7 (human breast cancer), A375 (human malignant melanoma), DU145 (human prostate cancer), and CT26 (mouse colon cancer) cell lines. The selected compounds had moderate to potent antitumor activity on the four cell lines, indicating their broad spectrum of antitumor activity (Table 5).
(§2) MCF-7, A375, and HeLa cells were cultured in DMEM, HCT116 cells were cultured in McCoy's 5A medium, and DU145 and CT26 were cultured in RPMI 1640 with 10% FBS, 1% penicillin-streptomycin solution (10,000 U/mL penicillin and 10,000 μg/mL streptomycin) at 37 °C under 5% CO2. The cells were seeded in 96-well plates (4 × 10^3 cells/well) overnight and then treated with various concentrations (1–50 μmol/L) of the compound. After 48 h, the cell viability was measured by CCK-8 assay. The absorbance of each well was measured using a microplate reader (Multiskan FC, Thermo Fisher Scientific, Massachusetts, USA) at 450 nm wavelength. Assays were performed in triplicate. Compound concentrations that inhibited cell growth by 50% (IC50) were calculated from the dose–response curves of each cell line. Data are mean ± SD values from three independent experiments.

For test [2], the system named is A375 (human malignant melanoma). As to the kind of experiment: CCK-8 anti-proliferation assay, A375. To be noted: Homo sapiens, A-375; CCK-8, 48 h, mean ± SD. The class given is cell-based. Here is the method: as §1, §2
For test [3], the system named is CT26 (mouse colon cancer). Put plainly: CCK-8 anti-proliferation assay, CT26. The class given is cell-based. As to conditions: Mus musculus, CT26; CCK-8, 48 h, mean ± SD. Here is the method: as §1, §2
For orientation: Tetrazolium assays rely on reduction of a dye to a coloured formazan, in cell work by metabolically active cells.

The test system of test [4] is HCT116 cells. As to the kind of experiment: EdU assay. To be noted: 48 h. Format: cell-based, human. Here is the method: HCT116 cells were seeded in 96-well plates (4 × 10^4 cells/well) overnight and then the cells were treated with various concentrations of compound 33a or 36b. After 48 h, the experiment operation process was performed according to the manufacturer's instructions. Images were obtained with a Leica DMIL fluorescence microscope (Leica Microsystems, Wetzlar, Germany).

Test [5] has as its system HCT116 cells. Put plainly: Wound healing assay. The class given is cell-based, human. To be noted: 24 h. Here is the method:
HCT116 cells were seeded in 6-well plates (6 × 10^5 cells/well) to full confluence and then an artificial wound was created in the cell monolayer using a 200 μl pipette tip. Images of wound closure were captured at 0 and 24 h using a Leica DMIL fluorescence microscope (Leica Microsystems). The percentage of wound closure was calculated using Image J software.

Test [6] deals with HCT116 cells. Put plainly: Cell cycle assay (PI, flow cytometry). As to conditions: 48 h. Format: cell-based, human. Here is the method: Cells were seeded in 6-well plates (5 × 10^5 cells/well). The following day, defined concentrations of compound 33a or 36b were added to the wells for 48 h at 37 °C with 5% CO2. The cells were collected and fixed in ice-cold 70% alcohol overnight. Then the cells were stained in propidium iodide (PI) dye for 15 min in the dark and the cell DNA contents were analyzed via flow cytometry (Becton, Dickinson Company, New Jersey, USA).

In test [7] the test system is HCT116 cells. Put plainly: Cell apoptosis (Annexin V-FITC/PI, flow cytometry). The class given is cell-based, human. To be noted: 48 h. Here is the method:
HCT116 cells were seeded in 6-well plates (4 × 10^5 cells/well). The following day, defined concentrations of compound 33a or 36b were added to the wells for 48 h at 37 °C with 5% CO2. The cells were collected and stained with Annexin V-FITC and PI for 15 min at room temperature. Apoptotic cells were analyzed with flow cytometry (BD Bioscience).
On the technique in general: Flow cytometry measures light scatter and fluorescence of single cells or particles in a stream.

The test system of test [8] is HCT116 cells. As to the kind of experiment: Intracellular ROS measurement (DCFH-DA). The class given is cell-based, human. As to conditions: 48 h. The protocol: HCT116 cells were seeded in 96-well plates overnight and then the cells were treated with defined concentrations of compound 33a or 36b. In addition, cells were pretreated with 0.8 mmol/L NAC for 1 h. After 48 h, the cells were washed with PBS. DCFH-DA (100 μL, 100 μmol/L) was added to each well and incubated for 30 min at 37 °C, and the cells were washed twice with PBS. Finally, the cells were cultivated in a 100 μL culture medium and the fluorescence signals were detected with an EnVision® NexusTM Multi-Mode Microplate Reader or flow cytometry (Becton, Dickinson Company).

Test [9] deals with T1, c-MYC (Homo sapiens, UniProt P01106). Put plainly: Surface plasmon resonance (SPR) assay. Format: binding. As to conditions: c-MYC immobilized on CM5 chip, 25 °C. Here is the method:
SPR analyses to evaluate the interaction of thioheterocyclic nucleoside derivatives with c-MYC immobilized onto a CM5 sensor chip (Cytiva, BR100012, Sweden) were performed using a Biacore T200 apparatus (Cytiva, Sweden) at 25 °C. During the analyte–ligand interaction, the change of the refractive index was measured in real-time which allowed interaction results to be plotted as response units (RU) versus time.
A general note: In SPR one partner is held on a chip, and binding of the other changes the refractive index at the surface.

Test [10] deals with c-MYC signal path in HCT116 cells. As to the kind of experiment: Western blot of c-MYC and downstream proteins. The class given is cell-based, human. The protocol: Whole protein was extracted and separated by polyacrylamide gel electrophoresis (SDS-PAGE) and transferred onto nitrocellulose membranes. Membranes were blotted with CDK1, Cyclin B1, Caspase-3, BAX, BCL-2, PARP-1, γ-H2AX, P53, ATF4, CHOP, PERK, ATP6, LC3, Beclin1, P62, β-Catenin, c-MYC, MAX, UPP1, GAPDH, β-Actin, and β-Tubulin primary antibodies. Protein band analyses were performed with ImageJ software and protein expression levels were presented as a percentage difference compared to control.

The target in test [11] is T1, c-MYC. Put plainly: Drug affinity responsive target stability (DARTS) assay. The class given is binding. More on the design: HCT116 cells were lysed with mammalian protein extraction reagent (M-PER); endogenous in cells; host or cells: HCT116. To be noted: HCT116 lysate, pronase, 0-640 μmol/L. Here is the method: HCT116 cells were lysed with mammalian protein extraction reagent (M-PER), centrifuged, and quantified by BCA protein assay. […] Proteolysis was performed by adding pronase solution at a ratio of 1:3200 for 30 min at room temperature and then stopped by adding SDS-PAGE sample loading buffer and boiling at 100 °C for 5 min. c-MYC protein was analyzed by Western blot.

Test [12] has as its target T1, c-MYC. As to the kind of experiment: Cellular thermal shift assay (CETSA). Format: binding. Also on record: HCT116 cells were lysed with mammalian protein extraction reagent (M-PER); endogenous in cells; host or cells: HCT116. To be noted: 40-70 °C. The protocol: In short, the lysates were incubated with 33a or 36b or DMSO for 30 min. The […] were divided equally and individually heated at different temperatures (40–70 °C) for 3 min and then cooled on ice. After freeze-thawing twice with liquid nitrogen, the supernatant was centrifuged, collected, and boiled in a loading buffer. c-MYC protein was analyzed by Western blot.

The source of these data is article PMC12278645, “Design, synthesis, and antitumor activity of novel thioheterocyclic nucleoside derivatives by suppressing the c-MYC pathway” (Acta Pharmaceutica Sinica. B, 2025).

T1 sequence (P01106 whole entry): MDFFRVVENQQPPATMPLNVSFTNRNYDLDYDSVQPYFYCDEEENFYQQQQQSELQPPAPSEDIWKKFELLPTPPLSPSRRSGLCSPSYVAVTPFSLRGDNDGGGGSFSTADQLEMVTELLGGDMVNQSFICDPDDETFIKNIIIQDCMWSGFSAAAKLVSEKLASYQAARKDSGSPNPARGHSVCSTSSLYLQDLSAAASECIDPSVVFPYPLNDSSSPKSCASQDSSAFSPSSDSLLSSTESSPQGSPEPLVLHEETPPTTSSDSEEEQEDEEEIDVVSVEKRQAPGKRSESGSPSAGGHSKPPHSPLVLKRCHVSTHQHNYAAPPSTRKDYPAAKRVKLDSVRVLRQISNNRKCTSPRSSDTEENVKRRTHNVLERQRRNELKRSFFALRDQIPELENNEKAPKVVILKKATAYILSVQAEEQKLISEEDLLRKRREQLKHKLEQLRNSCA

For `CCOC(=O)[C@]1(n2cnc3c(N4CCCCC4)nc(F)nc32)CSC[C@H]1O` (racemic) [33a], the IC50 in [1] was 8.45 ± 1.03 µM; in test [2], 2.34 ± 0.12 µM; in [3] it was 0.57 ± 0.13 µM. In addition, the EdU-positive cells entry in test [4] is “significantly fewer EdU-positive cells than in the control group”. Further, the wound healing entry in test [5] is on record as “significantly delay the wound healing ability of HCT116 cells in a dose-dependent manner”. Besides, the “G2/M cells” value in [6] is “increased the percentage of G2/M cells in a dose-dependent manner”. Further, in test [7], the “apoptosis” value is “induced apoptosis in a dose-dependent manner”. Also, the “ROS levels” value in test [8] is listed as “significantly increased ROS levels in a dose-dependent manner”. In addition, the Kd in [9] was 42.9 µM. Also, the “protein levels of c-MYC, β-Catenin, MAX, P21” value in test [10] was “c-MYC, β-Catenin, and MAX were significantly decreased, whereas the expression of p21 increased significantly in a dose-dependent manner”. In addition, the “stability of c-MYC against proteolysis” value in test [11] is “increase the stability of c-MYC in the process of protease hydrolysis”. For the same compound, the “thermal stability of c-MYC” value in test [12] was “increase the thermal stability of c-MYC in HCT116 cells from 40 to 70 °C”.

Take `CCCSc1nc(F)nc2c1ncn2[C@@]1(C(=O)OCC)CSC[C@@H]1O` (relative stereo) [36b]: the half-inhibitory concentration (IC50) in test [1] turned out to be 14.1 ± 1.24 µM; in test [2], 1.14 ± 0.17 µM; in test [3], 0.85 ± 0.09 µM. In addition, the EdU-positive cells entry in test [4] is recorded as “significantly fewer EdU-positive cells than in the control group”. For the same compound, in test [5], the wound healing entry was “significantly delay the wound healing ability of HCT116 cells in a dose-dependent manner”. For the same compound, the “G2/M cells” value in [6] was “increased the percentage of G2/M cells in a dose-dependent manner”. In [7], the “apoptosis” value was “induced apoptosis in a dose-dependent manner”. Further, in [8], the “ROS levels” value was “significantly increased ROS levels in a dose-dependent manner”. Also, in test [9], binding was characterised by a dissociation constant (Kd) of 206 µM. Besides, the “protein levels of c-MYC, β-Catenin, MAX, P21” value in test [10] was “c-MYC, β-Catenin, and MAX were significantly decreased, whereas the expression of p21 increased significantly in a dose-dependent manner”. Further, the “stability of c-MYC against proteolysis” value in [11] was “increase the stability of c-MYC in the process of protease hydrolysis”. In addition, the “thermal stability of c-MYC” value in [12] was “increase the thermal stability of c-MYC in HCT116 cells from 40 to 70 °C”.

In general, IC50 refers to the concentration needed to halve the response being measured. Read a low IC50 as inhibition by little substance. By Kd is commonly meant the concentration at which binding is half-saturated.
